From PubChem BioAssay (NCI) come the findings set out here.

The structures appear in SMILES notation.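 Where inhibition never reached the appropriate level, the endpoint shown equals the highest concentration tested. Otherwise, values were interpolated linearly from a five-concentration, 48-hour dose response in 96-well plates. TGI is the concentration that stops growth completely.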 Where only a bound is given, the exact number is not on record here.

Some test systems named below: SW-620 colon; HCT-116 colon; NCI-H460 lung; SNB-19 CNS; KM12 colon; NCI-H226 lung; UACC-62 melanoma; MCF7 breast; MDA-N; PC-3 prostate; CAKI-1 renal; MOLT-4 leukemia; SNB-75 CNS; HCC-2998 colon; SF-268 CNS; NCI/ADR-RES ovarian; NCI-H23 lung; CCRF-CEM leukemia; RXF 393 renal; SF-539 CNS.
Holding throughout (test): inhibition of tumour cell growth, NCI panel, 48 h

On to `CC(C)(C)OC(=O)NC(Cc1ccc(OC(C)(C)C)cc1)C(=O)N[C@H]1CCC[C@H]1C(=O)NC(Cc1ccccc1)C(=O)N1CCCC1C(N)=O` (stereo not given in full), for which the TGI with SW-620 colon, in the experiment on HCT-116 colon, in the experiment with NCI-H460 lung, in the experiment on SNB-19 CNS, in the experiment on KM12 colon and in the experiment on NCI-H226 lung was above 100 µM each time. Also, the TGI in the experiment on UACC-62 melanoma, with MCF7 breast, with MDA-N, with PC-3 prostate, with CAKI-1 renal and in the experiment on MOLT-4 leukemia was above 100 µM in each case. The TGI in the experiment on SNB-75 CNS, in the experiment with HCC-2998 colon, in the experiment with SF-268 CNS, in the experiment on NCI/ADR-RES ovarian, in the experiment with NCI-H23 lung and with CCRF-CEM leukemia was above 100 µM throughout. For the same compound, the TGI in the experiment on RXF 393 renal and with SF-539 CNS was above 100 µM throughout.
For `S=C1SSC2N=CC=CC12` (stereo not given), the TGI with SW-620 colon is above 100 µM; in the experiment on HCT-116 colon, above 100 µM; with NCI-H460 lung it was above 100 µM; in the experiment on SNB-19 CNS it was above 100 µM; in the experiment with KM12 colon it was 33 µM; in the experiment on NCI-H226 lung, above 100 µM. Moreover, the TGI was above 100 µM with UACC-62 melanoma; above 100 µM in the experiment with MCF7 breast; above 100 µM in the experiment on MDA-N; above 100 µM with PC-3 prostate; 34.3 µM in the experiment with CAKI-1 renal; above 100 µM with MOLT-4 leukemia. Also, the TGI is above 100 µM in the experiment on SNB-75 CNS; 61.4 µM in the experiment with HCC-2998 colon; above 100 µM with SF-268 CNS; above 100 µM with NCI/ADR-RES ovarian; above 100 µM in the experiment with NCI-H23 lung; 71.1 µM in the experiment on CCRF-CEM leukemia. The TGI in the experiment with RXF 393 renal and in the experiment on SF-539 CNS was above 100 µM throughout.
Turning to `CC1CC[C@@]2(OC1)OC1C[C@H]3[C@@H]4CC[C@H]5CC(OC6OC(CO)C(O)C(OC7OC(CO)C(OC8OC(CO)C(O)C(OC9OC(CO)C(O)C(O)C9O)C8OC8OC(CO)C(O)C(O)C8O)C(O)C7O)C6O)[C@H](O)CC5(C)[C@H]4CCC3(C)C1[C@@H]2C` (stereo not given in full), the TGI with SW-620 colon came out at 8.32 µM; in the experiment with HCT-116 colon it was 11.5 µM; in the experiment on NCI-H460 lung, 15.5 µM; in the experiment on SNB-19 CNS, 9.47 µM; in the experiment on KM12 colon, 12.2 µM; with NCI-H226 lung, 13.3 µM. Besides, the TGI is 16.6 µM with UACC-62 melanoma; 5.43 µM in the experiment on MCF7 breast; 13.8 µM in the experiment with MDA-N; 6.66 µM with PC-3 prostate; 11.3 µM in the experiment on CAKI-1 renal; 16.4 µM with MOLT-4 leukemia. The TGI worked out at 10.9 µM in the experiment with SNB-75 CNS; 4.71 µM in the experiment on HCC-2998 colon; 11.3 µM with SF-268 CNS; 12.5 µM in the experiment with NCI/ADR-RES ovarian; 12.7 µM in the experiment with NCI-H23 lung; 10.2 µM in the experiment with CCRF-CEM leukemia. Also, the TGI is 3.27 µM with RXF 393 renal and 6.76 µM in the experiment with SF-539 CNS.
As to `Cc1nn(C(=O)c2ccc(Cl)cc2)c2c1C(/C=C/c1ccccc1)SC(N)=N2` (stereo not given), the TGI in the experiment with SW-620 colon, in the experiment on HCT-116 colon, in the experiment with NCI-H460 lung, with SNB-19 CNS, in the experiment on KM12 colon and in the experiment on NCI-H226 lung was above 10 µM throughout. Besides, the TGI in the experiment on UACC-62 melanoma, in the experiment on MCF7 breast, in the experiment on MDA-N, with PC-3 prostate, in the experiment on CAKI-1 renal and with MOLT-4 leukemia was above 10 µM throughout. For the same compound, the TGI in the experiment with SNB-75 CNS, in the experiment on HCC-2998 colon, with SF-268 CNS, with NCI/ADR-RES ovarian, with NCI-H23 lung and with CCRF-CEM leukemia was above 10 µM in each case. Further, the TGI with RXF 393 renal and in the experiment on SF-539 CNS was above 10 µM each time.
Consider `CC(C(=O)OCc1ccccc1)(c1ccco1)N1C(=O)OC(c2ccccc2)C1c1ccccc1` (stereo not given), for which the TGI in the experiment with SW-620 colon, in the experiment with HCT-116 colon, in the experiment with NCI-H460 lung, in the experiment with SNB-19 CNS, in the experiment on KM12 colon and in the experiment with NCI-H226 lung was above 100 µM in each case. The TGI in the experiment with UACC-62 melanoma, in the experiment on MCF7 breast, in the experiment with MDA-N, in the experiment on PC-3 prostate, with CAKI-1 renal and in the experiment with MOLT-4 leukemia was above 100 µM in each case. Also, the TGI in the experiment on SNB-75 CNS, in the experiment with HCC-2998 colon, in the experiment on SF-268 CNS, in the experiment on NCI/ADR-RES ovarian, with NCI-H23 lung and with CCRF-CEM leukemia was above 100 µM each time. The TGI with RXF 393 renal and in the experiment on SF-539 CNS was above 100 µM each time.
Regarding `CC(=O)Oc1ccc2c(c1)c1c(=O)oc(C)nc1n2Cc1ccccc1`, the TGI with SW-620 colon is above 100 µM; with HCT-116 colon it was above 100 µM; in the experiment on NCI-H460 lung, above 100 µM; in the experiment on SNB-19 CNS it was above 100 µM; with KM12 colon, above 100 µM; in the experiment with NCI-H226 lung, above 69.7 µM. The TGI in the experiment on UACC-62 melanoma is above 31.6 µM; in the experiment on MCF7 breast it was above 100 µM; in the experiment on MDA-N it was above 88.1 µM; in the experiment with PC-3 prostate, above 100 µM; in the experiment with CAKI-1 renal, 34.4 µM; in the experiment with MOLT-4 leukemia, above 100 µM. Also, the TGI was above 87.7 µM in the experiment with SNB-75 CNS; above 100 µM in the experiment on HCC-2998 colon; above 100 µM in the experiment with SF-268 CNS; above 100 µM in the experiment on NCI/ADR-RES ovarian; above 100 µM in the experiment on NCI-H23 lung; above 100 µM in the experiment on CCRF-CEM leukemia. Also, the TGI is 68.5 µM in the experiment with RXF 393 renal and above 100 µM with SF-539 CNS.
As to `O=C1NC(=O)C(c2c[nH]c3ccccc23)=C1c1cn(C(c2ccccc2)(c2ccccc2)c2ccccc2)cn1`, the TGI with SW-620 colon came out at 30 µM; in the experiment on HCT-116 colon, 13.1 µM; in the experiment on NCI-H460 lung, 14.6 µM; in the experiment on SNB-19 CNS it was 65.3 µM; in the experiment on KM12 colon, 13.5 µM; in the experiment with NCI-H226 lung, 19.9 µM. In addition, the TGI in the experiment on UACC-62 melanoma is 30.1 µM; in the experiment with MCF7 breast, 17.7 µM; in the experiment with MDA-N it was 17.9 µM; with PC-3 prostate, 7.24 µM; with CAKI-1 renal, above 100 µM; in the experiment on MOLT-4 leukemia, 7.39 µM. Further, the TGI in the experiment with SNB-75 CNS was 22.1 µM; with HCC-2998 colon, 16 µM; with SF-268 CNS, 33.2 µM; with NCI/ADR-RES ovarian it was 22 µM; with NCI-H23 lung, 30.8 µM; in the experiment with CCRF-CEM leukemia, 17.4 µM. Also, the figures for the TGI in the experiment with RXF 393 renal and with SF-539 CNS were 36.1 µM and 35.8 µM, respectively.
